# pEC50, pIC50: −log10 of the molar value.
# Columns and labels:
# [1] = Selectivity ratio of CC50 for human MT4 cells to IC50 for HIV1 RES056 infected in MT4 cells
# [2] = Cytotoxicity against human MT4 cells assessed as reduction in cell viability by MTT assay
# [3] = system: Human immunodeficiency virus 1; assay: Antiviral activity against HIV1 3B infected in human MT4 cells assessed as reduction in virus-induced cytopathogenic effect by MTT assay; conditions: Human immunodeficiency virus 1, 3B
# [4] = system: Human immunodeficiency virus 2; assay: Antiviral activity against wild type HIV2 ROD infected in human MT4 cells assessed as reduction in virus-induced cytopathogenic effect by MTT assay; conditions: Human immunodeficiency virus 2, ROD
# [5] = target: Human immunodeficiency virus type 1 reverse transcriptase (Human immunodeficiency virus 1, UniProt Q72547); assay: Inhibition of wild type HIV1 reverse transcriptase assessed as reduction in biotin-dUTP incorporation into […] incubated for 1 hrs by ELISA
# [6] = system: Human immunodeficiency virus 1; assay: Antiviral activity against HIV1 RES056 infected in human MT4 cells assessed as reduction in virus-induced cytopathogenic effect by MTT assay; conditions: Human immunodeficiency virus 1, RES056, MT4
# [7] = system: Human immunodeficiency virus 1; assay: Antiviral activity against wild type HIV1 harboring Y188L mutant infected in human MT4 cells assessed as reduction in virus-induced cytopathogenic effect by MTT assay; conditions: Human immunodeficiency virus 1, MT4
# [8] = system: Human immunodeficiency virus 1; assay: Antiviral activity against HIV1 harboring K103N mutant infected in human MT4 cells assessed as reduction in virus-induced cytopathogenic effect by MTT assay; type: functional, organism-based; conditions: Human immunodeficiency virus 1, MT4
# [9] = system: Human immunodeficiency virus 1; conditions: Human immunodeficiency virus 1, MT4
# [10] = system: Human immunodeficiency virus 1; assay: Antiviral activity against HIV1 harboring F227L/V106A mutant infected in human MT4 cells assessed as reduction in virus-induced cytopathogenic effect by MTT assay; type: functional, organism-based; conditions: Human immunodeficiency virus 1, MT4
# [11] = system: Human immunodeficiency virus 1; assay: Antiviral activity against wild type HIV1 harboring Y181C mutant infected in human MT4 cells assessed as reduction in virus-induced cytopathogenic effect by MTT assay; conditions: Human immunodeficiency virus 1, MT4
# in vitro = conditions: human, MT4 cells
# Description: Selectivity index, ratio of CC50 for human MT4 cells to EC50 for HIV1 harboring E138K mutant infected in human MT4 cells
# [12] = system: Human immunodeficiency virus 1; assay: Antiviral activity against HIV1 harboring L100I mutant infected in human MT4 cells assessed as reduction in virus-induced cytopathogenic effect by MTT assay; conditions: Human immunodeficiency virus 1, MT4
SMILES,pIC50 [5],selectivity ratio [1],CC50 [2],pEC50 [3],pEC50 [4],pEC50 [6],pEC50 [7],pEC50 [8],pEC50 [9],pEC50 [10],pEC50 [11],selectivity ratio (in vitro),pEC50 [12]
Cc1cc(C#N)cc(C)c1Oc1nc(Nc2ccc(C#N)c(F)c2)nc2c1CSCC2,7.28,1030,269000 nM,7.87,< 3.57,6.58,–,–,–,–,–,–,–
Cc1cc(C#N)cc(C)c1Oc1nc(Nc2ccc(C#N)cn2)nc2c1CSCC2,7.28,> 1,> 302000 nM,7.16,< 3.52,3.59,–,–,–,–,–,–,–
Cc1cc(C#N)cc(C)c1Oc1nc(Nc2ccc(C#N)cc2F)nc2c1CSCC2,7.19,> 1,> 290000 nM,7.34,< 3.54,< 3.54,–,–,–,–,–,–,–
Cc1cc(C#N)cc(C)c1Oc1nc(Nc2ccc(C#N)nc2)nc2c1CSCC2,7.37,119,288000 nM,7.85,< 3.54,5.62,–,–,–,–,–,–,–
Cc1cc(/C=C/C#N)cc(C)c1Oc1nc(NC2CCN(Cc3ccc(S(C)(=O)=O)cc3)CC2)nc2c1CSCC2,–,186,21500 nM,7.90,5.32,6.94,7.22,8.07,7.46,7.83,7.47,619,8.03
O=C1Nc2ccc(Cl)cc2[C@@](C#CC2CC2)(C(F)(F)F)O1 [EFAVIRENZ],–,–,> 6340 nM,–,–,–,–,6.95,–,–,–,–,–
Cc1ccnc2c1NC(=O)c1cccnc1N2C1CC1 [NEVIRAPINE],–,–,> 15000 nM,–,< 4.82,< 4.82,< 4.82,4.91,6.74,< 4.82,< 4.82,–,5.65

# More lines, main results first:
pIC50 [5],SMILES,selectivity ratio [1],CC50 [2],pEC50 [3],pEC50 [4],pEC50 [6],pEC50 [7],pEC50 [8],pEC50 [9],pEC50 [10],pEC50 [11],selectivity ratio (in vitro),pEC50 [12]
6.84,Cc1cc(C#N)cc(C)c1Oc1nc(NC2CCN(Cc3cccc(C(N)=O)c3)CC2)nc2c1CSCC2,> 144,> 236000 nM,7.81,< 3.63,5.78,–,–,–,–,–,–,–
6.63,Cc1cc(/C=C/C#N)cc(C)c1Oc1nc(NC2CCN(Cc3ccc([N+](=O)[O-])cc3)CC2)nc2c1CSCC2,371,59500 nM,7.58,< 4.23,6.80,–,–,–,–,–,–,–
6.74,Cc1cc(/C=C/C#N)cc(C)c1Oc1nc(NC2CCN(Cc3cccc(C(N)=O)c3)CC2)nc2c1CSCC2,21,9450 nM,7.30,< 5.02,6.35,–,–,–,–,–,–,–
6.77,Cc1cc(/C=C/C#N)cc(C)c1Oc1nc(NC2CCN(Cc3cc(=O)[nH]c(=O)[nH]3)CC2)nc2c1CSCC2,26,23200 nM,7.51,< 4.63,6.06,–,–,–,–,–,–,–
7.23,Cc1cc(/C=C/C#N)cc(C)c1Oc1nc(Nc2ccc(C#N)cn2)nc2c1CSCC2,404,246000 nM,7.59,< 3.61,6.22,–,–,–,–,–,–,–
6.64,Cc1cc(C#N)cc(C)c1Oc1nc(NC2CCN(Cc3ccc([N+](=O)[O-])cc3)CC2)nc2c1CSCC2,> 83,> 236000 nM,7.94,< 3.63,5.55,–,–,–,–,–,–,–
7.29,Cc1cc(/C=C/C#N)cc(C)c1Oc1nc(Nc2ccc(C#N)cc2F)nc2c1CSCC2,> 47,> 273000 nM,7.51,< 3.56,5.24,–,–,–,–,–,–,–
7.05,Cc1cc(C#N)cc(C)c1Oc1nc(NC2CCN(Cc3cc(=O)[nH]c(=O)[nH]3)CC2)nc2c1CSCC2,8,25600 nM,7.86,< 4.59,5.49,–,–,–,–,–,–,–

# — ChEMBL document CHEMBL4831515 (J Med Chem, 2021)
